Source: ChEMBL document CHEMBL1201862, “PubChem BioAssay data set” (2004)
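Five compound concentrations were applied to cells in 96-well plates for 48 hours; endpoints were derived by simple linear interpolation of the resulting dose-response curve. GI50 is the concentration that inhibits growth by half.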 The source made the active and inactive calls. No stated cut-off is given here; in the data, active = GI50 up to about 1.1 µM and inactive = higher.

Key:
Assay in all cases: NCI anticancer screen, dose series, 48 h
SNB-75 = system: SNB-75
SW-620 = system: SW-620
HL-60 = system: HL-60
SF-295 = system: SF-295
SF-539 = system: SF-539
OVCAR-4 = system: OVCAR-4
HT-29 = system: HT-29
NCI-H522 = system: NCI-H522
DU-145 = system: DU-145
NCI-H226 = system: NCI-H226
NCI-H23 = system: NCI-H23
OVCAR-8 = system: OVCAR-8
UACC-257 = system: UACC-257
HCT-15 = system: HCT-15
U-251 = system: U-251
Hs-578T = system: Hs-578T
SNB-19 = system: SNB-19
KM12 = system: KM12
HOP-18 = system: HOP-18
HOP-62 = system: HOP-62
DMS-273 = system: DMS-273
MOLT-4 = system: MOLT-4
SF-268 = system: SF-268
UO-31 = system: UO-31
MDA-N = system: MDA-N
NCI-H460 = system: NCI-H460
OVCAR-3 = system: OVCAR-3
XF498 = system: XF498
TK-10 = system: TK-10
A498 = system: A498
K562 = system: K562
HOP-92 = system: HOP-92
HCT-116 = system: HCT-116
MDA-MB-435 = system: MDA-MB-435
RPMI-8226 = system: RPMI-8226
786-0 = system: 786-0
SN12C = system: SN12C
SK-MEL-28 = system: SK-MEL-28
OVCAR-5 = system: OVCAR-5
IGROV-1 = system: IGROV-1
COLO 205 = system: COLO 205
PC-3 = system: PC-3
SR = system: SR
EKVX = system: EKVX
ACHN = system: ACHN
DLD-1 = system: DLD-1
HCC 2998 = system: HCC 2998
KM-20L2 = system: KM-20L2
UACC-62 = system: UACC-62
RXF 393 = system: RXF 393
MDA-MB-231 = system: MDA-MB-231
BT-549 = system: BT-549
M14 = system: M14
SK-MEL-2 = system: SK-MEL-2
A549 = system: A549
CCRF-CEM = system: CCRF-CEM
CAKI-1 = system: CAKI-1
Malme-3M = system: Malme-3M
DMS-114 = system: DMS-114
M19-MEL = system: M19-MEL
LXFL 529 = system: LXFL 529
SK-MEL-5 = system: SK-MEL-5
T47D = system: T47D
SK-OV-3 = system: SK-OV-3
LOX IMVI = system: LOX IMVI
SNB-78 = system: SNB-78

Structure (SMILES): CCOC(=O)C(CC(C)C)NC(=O)C(N)Cc1ccc(N(CCCl)CCCl)cc1 (configuration not stated)
- GI50 (SNB-75): 3.94 µM (inactive)
- GI50 (SW-620): 6.62 µM (inactive)
- GI50 (HL-60): 0.134 µM (active)
- GI50 (SF-295): 4.39 µM (inactive)
- GI50 (SF-539): 2.57 µM (inactive)
- GI50 (OVCAR-4): 1.6 µM (inactive)
- GI50 (HT-29): 2.13 µM (inactive)
- GI50 (NCI-H522): 2.66 µM (inactive)
- GI50 (DU-145): 4.9 µM (inactive)
- GI50 (NCI-H226): 9.71 µM (inactive)
- GI50 (NCI-H23): 1.57 µM (inactive)
- GI50 (OVCAR-8): 4.91 µM (inactive)
- GI50 (UACC-257): 10.3 µM (inactive)
- GI50 (HCT-15): 2.38 µM
- GI50 (U-251): 3.79 µM (inactive)
- GI50 (Hs-578T): 18.6 µM (inactive)
- GI50 (SNB-19): 12 µM (inactive)
- GI50 (KM12): 12.9 µM (inactive)
- GI50 (HOP-18): 4.24 µM (inactive)
- GI50 (HOP-62): 4.86 µM (inactive)
- GI50 (DMS-273): 0.632 µM (active)
- GI50 (MOLT-4): 0.0637 µM (active)
- GI50 (SF-268): 3.56 µM (inactive)
- GI50 (UO-31): 2.17 µM (inactive)
- GI50 (MDA-N): 12.6 µM (inactive)
- GI50 (NCI-H460): 0.0478 µM (active)
- GI50 (OVCAR-3): 1.95 µM (inactive)
- GI50 (XF498): 1.52 µM (inactive)
- GI50 (TK-10): 9.71 µM (inactive)
- GI50 (A498): 13.9 µM (inactive)
- GI50 (K562): 1.58 µM (inactive)
- GI50 (HOP-92): 3.18 µM (inactive)
- GI50 (HCT-116): 3.12 µM (inactive)
- GI50 (MDA-MB-435): 16.9 µM (inactive)
- GI50 (RPMI-8226): 5.61 µM (inactive)
- GI50 (786-0): 1.69 µM (inactive)
- GI50 (SN12C): 5.6 µM (inactive)
- GI50 (SK-MEL-28): 4.81 µM (inactive)
- GI50 (OVCAR-5): 11.8 µM (inactive)
- GI50 (IGROV-1): 13.7 µM (inactive)
- GI50 (COLO 205): 4.22 µM (inactive)
- GI50 (PC-3): 10.9 µM (inactive)
- GI50 (SR): 0.0232 µM (active)
- GI50 (EKVX): 17.9 µM (inactive)
- GI50 (ACHN): 0.333 µM (active)
- GI50 (DLD-1): 2.52 µM (inactive)
- GI50 (HCC 2998): 7.35 µM (inactive)
- GI50 (KM-20L2): 3.33 µM (inactive)
- GI50 (UACC-62): 1.35 µM (inactive)
- GI50 (RXF 393): 2.01 µM (inactive)
- GI50 (MDA-MB-231): 15.7 µM (inactive)
- GI50 (BT-549): 15.8 µM (inactive)
- GI50 (M14): 2.83 µM (inactive)
- GI50 (SK-MEL-2): 4.83 µM (inactive)
- GI50 (A549): 6.95 µM (inactive)
- GI50 (CCRF-CEM): 0.104 µM (active)
- GI50 (CAKI-1): 3.11 µM (inactive)
- GI50 (Malme-3M): 1.75 µM (inactive)
- GI50 (DMS-114): 1.69 µM (inactive)
- GI50 (M19-MEL): 1.65 µM (inactive)
- GI50 (LXFL 529): 2.8 µM (inactive)
- GI50 (SK-MEL-5): 5.62 µM (inactive)
- GI50 (T47D): 2.35 µM (inactive)
- GI50 (SK-OV-3): 3.65 µM (inactive)

Structure (SMILES): O=C(C[n+]1ccccc1)NNC(=O)/C(=C/c1ccc2c(c1)OCO2)NC(=O)c1ccccc1
- GI50 (SNB-75): 36.7 µM (inactive)
- GI50 (SW-620): 34.8 µM (inactive)
- GI50 (HL-60): 25.2 µM (inactive)
- GI50 (SF-295): > 79.3 µM (inactive)
- GI50 (SF-539): 29.4 µM (inactive)
- GI50 (OVCAR-4): 32.1 µM (inactive)
- GI50 (HT-29): > 71.8 µM (inactive)
- GI50 (NCI-H522): 29 µM (inactive)
- GI50 (NCI-H226): 36.7 µM (inactive)
- GI50 (NCI-H23): > 79.1 µM (inactive)
- GI50 (OVCAR-8): 30 µM (inactive)
- GI50 (UACC-257): > 100 µM (inactive)
- GI50 (HCT-15): 28.6 µM
- GI50 (U-251): 28.2 µM (inactive)
- GI50 (SNB-19): 68.9 µM (inactive)
- GI50 (KM12): 35.2 µM (inactive)
- GI50 (HOP-18): 34.9 µM (inactive)
- GI50 (HOP-62): 44.4 µM (inactive)
- GI50 (DMS-273): 28.3 µM (inactive)
- GI50 (MOLT-4): 30.4 µM (inactive)
- GI50 (SF-268): 49.1 µM (inactive)
- GI50 (UO-31): > 70.8 µM (inactive)
- GI50 (NCI-H460): > 57.7 µM (inactive)
- GI50 (OVCAR-3): 29.9 µM (inactive)
- GI50 (XF498): > 41.2 µM (inactive)
- GI50 (TK-10): > 100 µM (inactive)
- GI50 (A498): > 100 µM (inactive)
- GI50 (K562): > 77.4 µM (inactive)
- GI50 (HOP-92): > 100 µM (inactive)
- GI50 (HCT-116): 68.9 µM (inactive)
- GI50 (RPMI-8226): 24.5 µM (inactive)
- GI50 (786-0): 51.4 µM (inactive)
- GI50 (SN12C): > 100 µM (inactive)
- GI50 (SK-MEL-28): > 100 µM (inactive)
- GI50 (OVCAR-5): > 100 µM (inactive)
- GI50 (IGROV-1): 44.7 µM (inactive)
- GI50 (COLO 205): > 46.1 µM (inactive)
- GI50 (SR): 18.2 µM (inactive)
- GI50 (EKVX): > 100 µM (inactive)
- GI50 (ACHN): > 100 µM (inactive)
- GI50 (DLD-1): 38.2 µM (inactive)
- GI50 (HCC 2998): > 100 µM (inactive)
- GI50 (KM-20L2): > 73.3 µM (inactive)
- GI50 (UACC-62): > 67.9 µM (inactive)
- GI50 (RXF 393): 41.7 µM (inactive)
- GI50 (M14): 48 µM (inactive)
- GI50 (SK-MEL-2): > 100 µM (inactive)
- GI50 (A549): > 76.4 µM (inactive)
- GI50 (CCRF-CEM): 25.9 µM (inactive)
- GI50 (CAKI-1): > 100 µM (inactive)
- GI50 (LOX IMVI): 20.6 µM (inactive)
- GI50 (Malme-3M): > 81.8 µM (inactive)
- GI50 (DMS-114): 25.5 µM (inactive)
- GI50 (M19-MEL): 41.7 µM (inactive)
- GI50 (SNB-78): > 56.8 µM (inactive)
- GI50 (LXFL 529): 38.7 µM (inactive)
- GI50 (SK-MEL-5): 32.4 µM (inactive)
- GI50 (SK-OV-3): > 100 µM (inactive)
